# Results published in publication PMC11571207, “Stereorandomized Oncocins with Preserved Ribosome Binding and Antibacterial Activity” (Journal of Medicinal Chemistry, 2024).
# Read-outs that look alike come from different tables or passages of the source.
# Legend:
# [1] = test system: P. aeruginosa PA14 4.18 (pmrB); conditions: supplement CSV; full MH pH 7.4
# K. pneumoniae NCTC 418 = assay: microbe, parasite or virus in culture; conditions: Klebsiella pneumoniae
# Method in brief: (§1)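 Read-out was visible growth after MTT addition, the MIC being the lowest inhibitory peptide concentration. Bacteria grown to log phase in LB were exposed in MH medium to peptide from 64 μg/mL in twofold dilutions for 15-18h at 37°C.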
# A. baumannii ATCC19606 = assay: microbe, parasite or virus in culture; conditions: Acinetobacter baumannii
# Method in brief: as §1
# S. aureus COL (MRSA) = assay: microbe, parasite or virus in culture; conditions: for MIC: Staphylococcus aureus, MRSA
# Method in brief: as §1
# P. aeruginosa PAO1 = assay: microbe, parasite or virus in culture; conditions: for MIC: Pseudomonas aeruginosa
# Method in brief: as §1
# E. coli W3110 = assay: microbe, parasite or virus in culture; conditions: Escherichia coli
# Method in brief: as §1
# P. aeruginosa PA14 = assay: microbe, parasite or virus in culture; conditions: for MIC: Pseudomonas aeruginosa
# Description: (§2) Minimum inhibitory concentration assay
# (§3) Antimicrobial activity was assayed against P. aeruginosa PAO1, K. pneumoniae NCTC418, E. coli W3110, A. baumannii ATCC 19606, methicillin-resistant S. aureus COL (MRSA), and for selected peptides on P. aeruginosa PA14 and the polymyxin-B-resistant derivative PA14 2P4, as well as the clinical isolates ZEM-1A and ZEM9A, K. pneumoniae OXA-48, S. aureus Newman, Enterobacter cloacae and Burkholderia cenocepacia. The minimal inhibitory concentration (MIC) was determined by using broth microdilution method. A colo ny of bacteria was picked and grown in Luria-Bertani (LB) medium overnight at 37°C. For E. coli BW25113 sbmA::kan the medium was supplemented with 25 mg/L of kanamycin. The next day, the culture was then regrown in LB medium to log phase (OD600 = 0.6 to 0.8), which lasted approximately 4 h, and diluted to an OD600 of 0.022 in the desired medium. Stock solutions of 1 mg/mL of the samples were prepared in sterilized milliQ water and diluted to the beginning concentration of 64 μg/mL in 300 μL Mueller Hinton (MH)-medium. The diluted samples were added to first well of 96-well microtiter plate (TPP, untreated, Faust Laborbedarf, AG, Schaffhausen) and diluted serially by ½. Finally, 4 μL of the bacterial suspension was inoculated into the sample solutions (150 μL/well) with a final inoculation of about 5∙10^5 CFU/mL. The plates were then incubated at 37°C for 15-18h. For each assay, sterility (broth only) and growth control (broth with bacterial inoculum, without antibiotics) were checked with two columns in the plate. The next day, 15 μL of 3-(4,5-dimethylthiazol-2-yl)-2,5-diphenyltetrazolium bromide (MTT) was added to each well of the plate, such a way that MIC was defined as the lowest concentration of the peptide that inhibited visible growth of the tested
# [2] = test system: P. aeruginosa PA14 2P4 (pmrB); assay: microbe, parasite or virus in culture; conditions: Pseudomonas aeruginosa
# Description: as §2, §3
# E. cloacae = assay: microbe, parasite or virus in culture; conditions: Enterobacter cloacae
# Description: as §2, §3
# P. aeruginosa ZEM9A = assay: microbe, parasite or virus in culture; conditions: Pseudomonas aeruginosa, ZEM9A
# Description: as §2, §3
# K. pneumoniae OXA-48 = assay: microbe, parasite or virus in culture; conditions: Klebsiella pneumoniae
# Description: as §2, §3
# P. aeruginosa ZEM-1A = assay: microbe, parasite or virus in culture; conditions: Pseudomonas aeruginosa, ZEM1A
# Description: as §2, §3
structure (smiles),measurement,setting,value
"CC[C@H]1OC(=O)[C@H](C)[C@@H](O[C@H]2C[C@@](C)(OC)[C@@H](O)[C@H](C)O2)[C@H](C)[C@@H](O[C@@H]2O[C@H](C)C[C@H](N(C)C)[C@H]2O)[C@](C)(O)C[C@@H](C)CN(C)[C@H](C)[C@@H](O)[C@]1(C)O [AZM, azithromycin, reference compound]",MIC P. aeruginosa PA14 4.18,[1],32 µg/mL
same,MIC,"K. pneumoniae NCTC 418; NCTC418, pH 7.4, read-out: MIC K. pneumoniae NCTC418, supplement CSV, 12.5% MH pH 7.4",1 µg/mL
same,MIC,"K. pneumoniae NCTC 418; NCTC418, pH 7.4, read-out: MIC K. pneumoniae NCTC418, supplement CSV, full MH pH 7.4",< 0.5 µg/mL
same,MIC,"K. pneumoniae NCTC 418; NCTC418, read-out: MIC K. pneumoniae, 12.5% MHB, K. pneumoniae NCTC 418, 12.5% Müller–Hinton medium, 16–20 h at 37 °C",1 µg/mL
same,MIC,"K. pneumoniae NCTC 418; NCTC418, read-out: MIC K. pneumoniae, Full MHB, K. pneumoniae NCTC 418, full Müller–Hinton medium, 16–20 h at 37 °C",< 0.5 µg/mL
same,MIC,"A. baumannii ATCC19606; ATCC19606, pH 7.4, read-out: MIC A. baumannii ATCC19606, supplement CSV, 12.5% MH pH 7.4",32 µg/mL
same,MIC,"A. baumannii ATCC19606; ATCC19606, pH 7.4, read-out: MIC A. baumannii ATCC19606, supplement CSV, full MH pH 7.4",4 µg/mL
same,MIC,"A. baumannii ATCC19606; ATCC19606, read-out: MIC A. baumannii, 12.5% MHB, A. baumannii ATCC19606, 12.5% Müller–Hinton medium, 16–20 h at 37 °C",32 µg/mL
same,MIC,"A. baumannii ATCC19606; ATCC19606, read-out: MIC A. baumannii, Full MHB, A. baumannii ATCC19606, full Müller–Hinton medium, 16–20 h at 37 °C",4 µg/mL
same,MIC,"S. aureus COL (MRSA); pH 7.4, read-out: MIC S. aureus COL (MRSA)",< 0.5 µg/mL
same,MIC,"S. aureus COL (MRSA); read-out: MIC S. aureus, 12.5% MHB",< 0.5 µg/mL
same,MIC,"S. aureus COL (MRSA); read-out: MIC S. aureus, Full MHB",< 0.5 µg/mL
same,MIC S. aureus COL (MRSA),"S. aureus COL (MRSA); supplement CSV, 12.5% MH pH 7.4",<0.5 µg/mL
same,MIC,"P. aeruginosa PAO1; PAO1, pH 7.4, read-out: MIC P. aeruginosa PAO1",32 µg/mL
same,MIC,"P. aeruginosa PAO1; PAO1, read-out: MIC P. aeruginosa, 12.5% MHB",32 µg/mL
same,MIC,"P. aeruginosa PAO1; PAO1, read-out: MIC P. aeruginosa, Full MHB",32 µg/mL
same,MIC P. aeruginosa PAO1,"P. aeruginosa PAO1; supplement CSV, full MH pH 7.4",32 µg/mL
same,MIC,"E. coli W3110; W3110, pH 7.4, read-out: MIC E. coli W3110, supplement CSV, 12.5% MH pH 7.4",2 µg/mL
same,MIC,"E. coli W3110; W3110, pH 7.4, read-out: MIC E. coli W3110, supplement CSV, full MH pH 7.4",< 0.5 µg/mL
same,MIC,"E. coli W3110; W3110, read-out: MIC E. coli, 12.5% MHB, E. coli W3110, 12.5% Müller–Hinton medium, 16–20 h at 37 °C, broth microdilution",2 µg/mL
same,MIC,"E. coli W3110; W3110, read-out: MIC E. coli, Full MHB, E. coli W3110, full Müller–Hinton medium, 16–20 h at 37 °C, broth microdilution",< 0.5 µg/mL
same,MIC,"P. aeruginosa PA14; PA14, pH 7.4, read-out: MIC P. aeruginosa PA14",32 µg/mL
same,MIC,"P. aeruginosa PA14; PA14, pH 7.4, read-out: MIC P. aeruginosa PA14, 12.5% MHB",32 µg/mL
same,MIC,"P. aeruginosa PA14; PA14, pH 7.4, read-out: MIC P. aeruginosa PA14, full MHB",32 µg/mL
same,MIC P. aeruginosa PA14,"P. aeruginosa PA14; supplement CSV, full MH pH 7.4",32 µg/mL
same,MIC,"[2]; PA14, pH 7.4, read-out: MIC P. aeruginosa PA14 2P4 (pmrB), 12.5% MHB, polymyxin B resistant strain, 12.5% MHB pH 7.4, 16–20 h at 37 °C",16 µg/mL
same,MIC,"[2]; PA14, pH 7.4, read-out: MIC P. aeruginosa PA14 2P4 (pmrB), full MHB, polymyxin B resistant strain, full MHB pH 7.4, 16–20 h at 37 °C",32 to 64 µg/mL
same,MIC,"[2]; PA14, pH 7.4, read-out: MIC P. aeruginosa PA14 2P4, supplement CSV, 12.5% MH pH 7.4",16 µg/mL
same,MIC,"[2]; PA14, pH 7.4, read-out: MIC P. aeruginosa PA14 2P4, supplement CSV, full MH pH 7.4",32 to 64 µg/mL
same,MIC,"E. cloacae; pH 7.4, read-out: MIC E. cloacae, 12.5% MHB, 12.5% MHB pH 7.4, 16–20 h at 37 °C",8 µg/mL
same,MIC,"E. cloacae; pH 7.4, read-out: MIC E. cloacae, full MHB, full MHB pH 7.4, 16–20 h at 37 °C",16 µg/mL
same,MIC,"E. cloacae; pH 7.4, read-out: MIC E. cloacae, supplement CSV, 12.5% MH pH 7.4",8 µg/mL
same,MIC,"E. cloacae; pH 7.4, read-out: MIC E. cloacae, supplement CSV, full MH pH 7.4",16 µg/mL
same,MIC,"P. aeruginosa ZEM9A; pH 7.4, read-out: MIC P. aeruginosa ZEM9A, 12.5% MHB, clinical isolate, 12.5% MHB pH 7.4, 16–20 h at 37 °C",32 to 64 µg/mL
same,MIC,"P. aeruginosa ZEM9A; pH 7.4, read-out: MIC P. aeruginosa ZEM9A, full MHB, clinical isolate, full MHB pH 7.4, 16–20 h at 37 °C",> 64 µg/mL
same,MIC,"P. aeruginosa ZEM9A; pH 7.4, read-out: MIC P. aeruginosa ZEM9A, supplement CSV, 12.5% MH pH 7.4",32 to 64 µg/mL
same,MIC,"P. aeruginosa ZEM9A; pH 7.4, read-out: MIC P. aeruginosa ZEM9A, supplement CSV, full MH pH 7.4",> 64 µg/mL
same,MIC,"K. pneumoniae OXA-48; OXA48, pH 7.4, read-out: MIC K. pneumoniae OXA-48, 12.5% MHB, carbapenem-resistant, 12.5% MHB pH 7.4, 16–20 h at 37 °C",8 µg/mL
same,MIC,"K. pneumoniae OXA-48; OXA48, pH 7.4, read-out: MIC K. pneumoniae OXA-48, full MHB, carbapenem-resistant, full MHB pH 7.4, 16–20 h at 37 °C",8 to 16 µg/mL
same,MIC,"K. pneumoniae OXA-48; OXA48, pH 7.4, read-out: MIC K. pneumoniae OXA-48, supplement CSV, 12.5% MH pH 7.4",8 µg/mL
same,MIC,"K. pneumoniae OXA-48; OXA48, pH 7.4, read-out: MIC K. pneumoniae OXA-48, supplement CSV, full MH pH 7.4",8 to 16 µg/mL
same,MIC,"P. aeruginosa ZEM-1A; pH 7.4, read-out: MIC P. aeruginosa ZEM-1A, 12.5% MHB, clinical isolate, 12.5% MHB pH 7.4, 16–20 h at 37 °C, cells marked c: single measurement (in duplicates)",< 0.5 µg/mL
same,MIC,"P. aeruginosa ZEM-1A; pH 7.4, read-out: MIC P. aeruginosa ZEM-1A, full MHB, clinical isolate, full MHB pH 7.4, 16–20 h at 37 °C, cells marked c: single measurement (in duplicates)",64 µg/mL
same,MIC,"P. aeruginosa ZEM-1A; pH 7.4, read-out: MIC P. aeruginosa ZEM-1A, supplement CSV, 12.5% MH pH 7.4",< 0.5 µg/mL
same,MIC,"P. aeruginosa ZEM-1A; pH 7.4, read-out: MIC P. aeruginosa ZEM-1A, supplement CSV, full MH pH 7.4",64 µg/mL
